{"source": "patent US9028845B2", "about": "“Chimeric immunomodulatory compounds and methods of using the same-IV” (Dynavax Technologies Corporation, priority 2001, dated 2015)", "system": "human PBMCs", "assay": "Human PBMC cytokine response assay (IFN-γ and IFN-α in cell-free medium by ELISA), with or without cPLGA", "format": "cell-based", "key": {"[1]": {"settings": "Donor 5, 20 μg/ml (mixtures: 20 μg/ml total), 24 h"}, "[2]": {"settings": "Donor 6, 20 μg/ml (mixtures: 20 μg/ml total), 24 h"}}, "data": [{"substance": "5′-TGACTGTGAACGTTCGAGATGA-3′ (SEQ ID NO: 2) [Compound P-6, reference compound]", "values": [{"measurement": "IFN-α (pg/ml) Donor 1", "setting": "Donor 1, 20 μg/ml, 24 h", "value": 401, "unit": "pg/mL"}, {"measurement": "IFN-γ (pg/ml) Donor 1", "setting": "Donor 1, 20 μg/ml, 24 h", "value": 2180, "unit": "pg/mL"}, {"measurement": "IFN-α (pg/ml) Donor 2", "setting": "Donor 2, 20 μg/ml, 24 h", "value": 39, "unit": "pg/mL"}, {"measurement": "IFN-γ (pg/ml) Donor 2", "setting": "Donor 2, 20 μg/ml, 24 h", "value": 669, "unit": "pg/mL"}, {"measurement": "IFN-α (pg/ml) Donor 3", "setting": "Donor 3, 20 μg/ml, 24 h", "value": 28, "unit": "pg/mL"}, {"measurement": "IFN-γ (pg/ml) Donor 3", "setting": "Donor 3, 20 μg/ml, 24 h", "value": 99, "unit": "pg/mL"}, {"measurement": "IFN-α (pg/ml) Donor 4", "setting": "Donor 4, 20 μg/ml, 24 h", "value": 106, "unit": "pg/mL"}, {"measurement": "IFN-γ (pg/ml) Donor 4", "setting": "Donor 4, 20 μg/ml, 24 h", "value": 223, "unit": "pg/mL"}, {"measurement": "IFN-α (pg/ml) Donor 5", "setting": "[1]", "value": 54, "unit": "pg/mL"}, {"measurement": "IFN-γ (pg/ml) Donor 5", "setting": "[1]", "value": 73, "unit": "pg/mL"}, {"measurement": "IFN-α (pg/ml) Donor 6", "setting": "[2]", "value": 482, "unit": "pg/mL"}, {"measurement": "IFN-γ (pg/ml) Donor 6", "setting": "[2]", "value": 1170, "unit": "pg/mL"}, {"measurement": "IFN-α (pg/ml) Donor 7", "setting": "Donor 7, 20 μg/ml, 24 h", "value": 4, "unit": "pg/mL"}, {"measurement": "IFN-γ (pg/ml) Donor 7", "setting": "Donor 7, 20 μg/ml, 24 h", "value": 15, "unit": "pg/mL"}, {"measurement": "IFN-α (pg/ml) Donor 8", "setting": "Donor 8, 20 μg/ml, 24 h", "value": 59, "unit": "pg/mL"}, {"measurement": "IFN-γ (pg/ml) Donor 8", "setting": "Donor 8, 20 μg/ml, 24 h", "value": 367, "unit": "pg/mL"}, {"measurement": "IFN-α Donor 9", "setting": "Donor 9, 20 μg/ml, 24 h", "value": 12}, {"measurement": "IFN-γ Donor 9", "setting": "Donor 9, 20 μg/ml, 24 h", "value": 66}, {"measurement": "IFN-α Donor 10", "setting": "Donor 10, 20 μg/ml, 24 h", "value": 28}, {"measurement": "IFN-γ Donor 10", "setting": "Donor 10, 20 μg/ml, 24 h", "value": 20}, {"measurement": "IFN-α Donor 11", "setting": "Donor 11, 20 μg/ml, 24 h", "value": 12}, {"measurement": "IFN-γ Donor 11", "setting": "Donor 11, 20 μg/ml, 24 h", "value": 72}, {"measurement": "IFN-α Donor 12", "setting": "Donor 12, 20 μg/ml, 24 h", "value": 12}, {"measurement": "IFN-γ Donor 12", "setting": "Donor 12, 20 μg/ml, 24 h", "value": 23}, {"measurement": "IFN-α", "setting": "Example 58, 0.8 ug/ml, donor 1", "value": 52, "unit": "pg/mL"}, {"measurement": "IFN-α", "setting": "Example 58, 0.8 ug/ml, donor 2", "value": 52, "unit": "pg/mL"}, {"measurement": "IFN-α", "setting": "Example 58, 0.8 ug/ml, donor 3", "value": 52, "unit": "pg/mL"}, {"measurement": "IFN-α", "setting": "Example 58, 0.8 ug/ml, donor 4", "value": 52, "unit": "pg/mL"}, {"measurement": "IFN-α mean", "setting": "Example 58, 0.8 ug/ml, mean of four individuals", "value": 52, "unit": "pg/mL"}, {"measurement": "IFN-α", "setting": "Example 58, 4 ug/ml, donor 1", "value": 115, "unit": "pg/mL"}, {"measurement": "IFN-α", "setting": "Example 58, 4 ug/ml, donor 2", "value": 52, "unit": "pg/mL"}, {"measurement": "IFN-α", "setting": "Example 58, 4 ug/ml, donor 3", "value": 52, "unit": "pg/mL"}, {"measurement": "IFN-α", "setting": "Example 58, 4 ug/ml, donor 4", "value": 65, "unit": "pg/mL"}, {"measurement": "IFN-α mean", "setting": "Example 58, 4 ug/ml, mean of four individuals", "value": 71, "unit": "pg/mL"}, {"measurement": "IFN-α", "setting": "Example 58, 20 ug/ml, donor 1", "value": 116, "unit": "pg/mL"}, {"measurement": "IFN-α", "setting": "Example 58, 20 ug/ml, donor 2", "value": 64, "unit": "pg/mL"}, {"measurement": "IFN-α", "setting": "Example 58, 20 ug/ml, donor 3", "value": 52, "unit": "pg/mL"}, {"measurement": "IFN-α", "setting": "Example 58, 20 ug/ml, donor 4", "value": 52, "unit": "pg/mL"}, {"measurement": "IFN-α mean", "setting": "Example 58, 20 ug/ml, mean of four individuals", "value": 71, "unit": "pg/mL"}, {"measurement": "IFN-α", "setting": "Example 59, 0.8 ug/ml, donor 48", "value": 102, "unit": "pg/mL"}, {"measurement": "IFN-α", "setting": "Example 59, 0.8 ug/ml, donor 177", "value": 102, "unit": "pg/mL"}, {"measurement": "IFN-α", "setting": "Example 59, 0.8 ug/ml, donor 272", "value": 102, "unit": "pg/mL"}, {"measurement": "IFN-α", "setting": "Example 59, 0.8 ug/ml, donor 273", "value": 102, "unit": "pg/mL"}, {"measurement": "IFN-α mean", "setting": "Example 59, 0.8 ug/ml, mean of four donors", "value": 102, "unit": "pg/mL"}, {"measurement": "IFN-α", "setting": "Example 59, 4 ug/ml, donor 48", "value": 102, "unit": "pg/mL"}, {"measurement": "IFN-α", "setting": "Example 59, 4 ug/ml, donor 177", "value": 245, "unit": "pg/mL"}, {"measurement": "IFN-α", "setting": "Example 59, 4 ug/ml, donor 272", "value": 102, "unit": "pg/mL"}, {"measurement": "IFN-α", "setting": "Example 59, 4 ug/ml, donor 273", "value": 102, "unit": "pg/mL"}, {"measurement": "IFN-α mean", "setting": "Example 59, 4 ug/ml, mean of four donors", "value": 138, "unit": "pg/mL"}, {"measurement": "IFN-α", "setting": "Example 59, 20 ug/ml, donor 48", "value": 256, "unit": "pg/mL"}, {"measurement": "IFN-α", "setting": "Example 59, 20 ug/ml, donor 177", "value": 323, "unit": "pg/mL"}, {"measurement": "IFN-α", "setting": "Example 59, 20 ug/ml, donor 272", "value": 102, "unit": "pg/mL"}, {"measurement": "IFN-α", "setting": "Example 59, 20 ug/ml, donor 273", "value": 102, "unit": "pg/mL"}, {"measurement": "IFN-α mean", "setting": "Example 59, 20 ug/ml, mean of four donors", "value": 196, "unit": "pg/mL"}, {"measurement": "IFN-α", "setting": "Table 9, donor 28089", "value": 0, "unit": "pg/mL"}, {"measurement": "IFN-γ", "setting": "Table 9, donor 28089", "value": 84, "unit": "pg/mL"}, {"measurement": "IFN-α", "setting": "Table 9, donor 28090", "value": 62, "unit": "pg/mL"}, {"measurement": "IFN-γ", "setting": "Table 9, donor 28090", "value": 255, "unit": "pg/mL"}, {"measurement": "IFN-α", "setting": "Table 9, donor 28098", "value": 105, "unit": "pg/mL"}, {"measurement": "IFN-γ", "setting": "Table 9, donor 28098", "value": 745, "unit": "pg/mL"}, {"measurement": "IFN-α", "setting": "Table 9, donor 28099", "value": 105, "unit": "pg/mL"}, {"measurement": "IFN-γ", "setting": "Table 9, donor 28099", "value": 125, "unit": "pg/mL"}, {"measurement": "IFN-α mean", "setting": "Table 9, mean of donors", "value": 68, "unit": "pg/mL"}, {"measurement": "IFN-γ mean", "setting": "Table 9, mean of donors", "value": 302, "unit": "pg/mL"}, {"measurement": "IFN-α", "setting": "Table 10, donor 28042", "value": 27, "unit": "pg/mL"}, {"measurement": "IFN-γ", "setting": "Table 10, donor 28042", "value": 495, "unit": "pg/mL"}, {"measurement": "IFN-α", "setting": "Table 10, donor 28043", "value": 85, "unit": "pg/mL"}, {"measurement": "IFN-γ", "setting": "Table 10, donor 28043", "value": 1189, "unit": "pg/mL"}, {"measurement": "IFN-α", "setting": "Table 10, donor 28044", "value": 36, "unit": "pg/mL"}, {"measurement": "IFN-γ", "setting": "Table 10, donor 28044", "value": 925, "unit": "pg/mL"}, {"measurement": "IFN-α", "setting": "Table 10, donor 28045", "value": 21, "unit": "pg/mL"}, {"measurement": "IFN-γ", "setting": "Table 10, donor 28045", "value": 212, "unit": "pg/mL"}, {"measurement": "IFN-α mean", "setting": "Table 10, mean of donors", "value": 42, "unit": "pg/mL"}, {"measurement": "IFN-γ mean", "setting": "Table 10, mean of donors", "value": 705, "unit": "pg/mL"}, {"measurement": "IFN-α", "setting": "Table 11, donor 28042", "value": 9, "unit": "pg/mL"}, {"measurement": "IFN-γ", "setting": "Table 11, donor 28042", "value": 324, "unit": "pg/mL"}, {"measurement": "IFN-α", "setting": "Table 11, donor 28043", "value": 34, "unit": "pg/mL"}, {"measurement": "IFN-γ", "setting": "Table 11, donor 28043", "value": 1036, "unit": "pg/mL"}, {"measurement": "IFN-α", "setting": "Table 11, donor 28044", "value": 22, "unit": "pg/mL"}, {"measurement": "IFN-γ", "setting": "Table 11, donor 28044", "value": 529, "unit": "pg/mL"}, {"measurement": "IFN-γ", "setting": "Table 11, donor 28045", "value": 653, "unit": "pg/mL"}, {"measurement": "IFN-α mean", "setting": "Table 11, mean of donors", "value": 43, "unit": "pg/mL"}, {"measurement": "IFN-γ mean", "setting": "Table 11, mean of donors", "value": 636, "unit": "pg/mL"}, {"measurement": "IFN-α", "setting": "Table 13, donor 28156", "value": 52, "unit": "pg/mL"}, {"measurement": "IFN-γ", "setting": "Table 13, donor 28156", "value": 1132, "unit": "pg/mL"}, {"measurement": "IFN-α", "setting": "Table 13, donor 28157", "value": 484, "unit": "pg/mL"}, {"measurement": "IFN-γ", "setting": "Table 13, donor 28157", "value": 872, "unit": "pg/mL"}]}]}
